This assay has as its target SHP2 (Homo sapiens (Human), UniProt Q06124). The experiment in a line: SHP2 allosteric inhibition assay (DiFMUP prompt fluorescence). The format is biochemical. To be noted: 0.25 nM SHP2 activated with 0.5 μM peptide IRS1_pY1172(dPEG8)pY1222; substrate DiFMUP.
SHP2, sequence (Q06124 whole entry): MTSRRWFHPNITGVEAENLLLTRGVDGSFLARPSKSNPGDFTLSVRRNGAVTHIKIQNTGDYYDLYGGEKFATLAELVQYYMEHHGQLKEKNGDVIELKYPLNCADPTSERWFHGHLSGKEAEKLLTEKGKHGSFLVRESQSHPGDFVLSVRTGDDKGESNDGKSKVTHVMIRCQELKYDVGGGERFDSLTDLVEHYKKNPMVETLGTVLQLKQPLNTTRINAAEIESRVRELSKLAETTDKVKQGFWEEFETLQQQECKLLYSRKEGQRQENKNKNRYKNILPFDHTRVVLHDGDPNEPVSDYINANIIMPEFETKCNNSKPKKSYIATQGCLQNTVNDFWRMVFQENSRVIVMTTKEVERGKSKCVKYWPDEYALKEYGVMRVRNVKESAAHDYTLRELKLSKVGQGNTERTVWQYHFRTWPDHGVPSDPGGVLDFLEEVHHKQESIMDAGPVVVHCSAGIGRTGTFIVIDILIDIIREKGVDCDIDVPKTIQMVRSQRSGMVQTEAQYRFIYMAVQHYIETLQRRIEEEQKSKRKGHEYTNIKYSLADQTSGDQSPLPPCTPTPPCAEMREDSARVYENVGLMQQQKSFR
As usually defined, the IC50 is the concentration that inhibits the measured activity by half. Low values mean greater potency, high ones weaker potency. In turn, `CN(c1ccnc(N)c1)c1n[nH]c2nc(N3CCC4(CC3)Cc3ccccc3[C@H]4N)cnc12` [Example 148, (S)—N4-(6-(1-amino-1,3-dihydrospiro[indene-2,4′-piperidin]-1′-yl)-1H-pyrazolo[3,4-b]pyrazin-3-yl)-N4-methylpyridine-2,4-diamine] displayed an IC50 of at most 50 nM.

Regarding `Cc1nc2c(N3CCCc4nc(-c5cnn(C)c5)ccc43)n[nH]c2nc1N1CCC2(CC1)Cc1ccccc1[C@H]2N` [Example 149, (3S)-1′-{5-methyl-3-[6-(1-methyl-1H-pyrazol-4-yl)-1,2,3,4-tetrahydro-1,5-naphthyridin-1-yl]-1H-pyrazolo[3,4-b]pyrazin-6-yl}-1,3-dihydrospiro[indene-2,4′-piperidin]-3-amine], the IC50 was at most 50 nM.

For `Cc1nc2c(N3CCCCC3)n[nH]c2nc1N1CCC2(CC1)Cc1ccccc1[C@H]2N` [Example 152, (3S)-1′-[5-methyl-3-(piperidin-1-yl)-1H-pyrazolo[3,4-b]pyrazin-6-yl]-1,3-dihydrospiro[indene-2,4′-piperidin]-3-amine], the IC50 was at most 50 nM.

Compound `N#CCc1n[nH]c2nc(N3CCC4(CC3)Cc3ccccc3[C@H]4N)c(CO)nc12` [Example 153, 2-{6-[(3S)-3-amino-1,3-dihydrospiro[indene-2,4′-piperidin]-1′-yl]-5-(hydroxymethyl)-1H-pyrazolo[3,4-b]pyrazin-3-yl}acetonitrile] came in with a half-maximal inhibitory concentration (IC50) of at most 50 nM.

Take `N#Cc1n[nH]c2nc(N3CCC4(CC3)Cc3ccccc3[C@H]4N)c(CO)nc12` [Example 154, 6-[(3S)-3-amino-1,3-dihydrospiro[indene-2,4′-piperidin]-1′-yl]-5-(hydroxymethyl)-1H-pyrazolo[3,4-b]pyrazine-3-carbonitrile]: the IC50 was at most 50 nM.

For the compound `CNC(=O)c1n[nH]c2nc(N3CCC4(CC3)Cc3ccccc3[C@H]4N)c(CO)nc12` [Example 155, 6-[(3S)-3-amino-1,3-dihydrospiro[indene-2,4′-piperidin]-1′-yl]-5-(hydroxymethyl)-N-methyl-1H-pyrazolo[3,4-b]pyrazine-3-carboxamide], the IC50 is at most 50 nM.

Consider `Cc1n[nH]c2nc(N3CCC4(CC3)Cc3ccccc3[C@H]4N)c(CO)nc12` [Example 156, {6-[(3S)-3-amino-1,3-dihydrospiro[indene-2,4′-piperidin]-1′-yl]-3-methyl-1H-pyrazolo[3,4-b]pyrazin-5-yl}methanol], for which the IC50 is at most 50 nM.

`N[C@@H]1c2ccccc2CC12CCN(c1cnc(Cc3ccnc(Cl)c3Cl)cn1)CC2` [Example 157, (3S)-1′-{5-[(2,3-dichloropyridin-4-YL)methyl]pyrazin-2-yl}-1,3-dihydrospiro[indene-2,4′-piperidin]-3-amine]: the IC50 is at most 50 nM.

As for `COc1n[nH]c2nc(N3CCC4(CC3)Cc3ccccc3[C@H]4N)c(CO)nc12` [Example 158, {6-[(3S)-3-amino-1,3-dihydrospiro[indene-2,4′-piperidin]-1′-yl]-3-methoxy-1H-pyrazolo[3,4-b]pyrazin-5-yl}methanol], the IC50 was at most 50 nM.

`N[C@@H]1c2ccccc2OC12CCN(c1nc3[nH]ncc3nc1CO)CC2` [Example 159, {6-[(3R)-3-amino-3H-spiro[1-benzofuran-2,4′-piperidin]-1′-yl]-1H-pyrazolo[3,4-b]pyrazin-5-yl}methanol] returned an IC50 of at most 50 nM.

Compound `Cc1nc2c(N3CCOCC3)n[nH]c2nc1N1CCC2(CC1)Cc1ccccc1[C@H]2N` [Example 160, (3S)-1′-[5-methyl-3-(morpholin-4-yl)-1H-pyrazolo[3,4-b]pyrazin-6-yl]-1,3-dihydrospiro[indene-2,4′-piperidin]-3-amine] displayed an IC50 of at most 50 nM.

In turn, `Cc1nc2c(N3CCCCC3)n[nH]c2nc1N1CCC2(CC1)Oc1ccccc1[C@H]2N` [Example 162, (3R)-1′-[5-methyl-3-(piperidin-1-yl)-1H-pyrazolo[3,4-b]pyrazin-6-yl]-3H-spiro[1-benzofuran-2,4′-piperidin]-3-amine] registered a concentration for half-maximal inhibition (IC50) of over 10000 nM.

Regarding `Cc1nc2c(C#N)n[nH]c2nc1N1CCC2(CC1)Cc1ccccc1[C@H]2N` [Example 163, 6-[(3S)-3-amino-1,3-dihydrospiro[indene-2,4′-piperidin]-1′-yl]-5-methyl-1H-pyrazolo[3,4-b]pyrazine-3-carbonitrile], the IC50 fell in the range of 1000 to 10000 nM.

In the case of `Cc1nc2c(C3=CCOCC3)n[nH]c2nc1N1CCC2(CC1)Cc1ccccc1[C@H]2N` [Example 167, (3S)-1′-[3-(3,6-dihydro-2H-pyran-4-yl)-5-methyl-1H-pyrazolo[3,4-b]pyrazin-6-yl]-1,3-dihydrospiro[indene-2,4′-piperidin]-3-amine], the IC50 is at most 50 nM.

`N[C@@H]1c2ccccc2CC12CCN(c1cnc(SC3CCCC3)cn1)CC2` [Example 168, (3S)-1′-[5-(cyclopentylsulfanyl)pyrazin-2-yl]-1,3-dihydrospiro[indene-2,4′-piperidin]-3-amine] yielded an IC50 of at most 50 nM.

`N[C@@H]1c2ccccc2CC12CCN(c1cn3ccnc3cn1)CC2` [Example 169, (3S)-1′-{imidazo[1,2-a]pyrazin-6-yl}-1,3-dihydrospiro[indene-2,4′-piperidin]-3-amine] displayed an IC50 of 1000 to 10000 nM.

With `CCSc1cnc(N2CCC3(CC2)Cc2ccccc2[C@H]3N)cn1` [Example 170, (3S)-1′-[5-(ethylsulfanyl)pyrazin-2-yl]-1,3-dihydrospiro[indene-2,4′-piperidin]-3-amine], the IC50 was in the range of 50 to 1000 nM.

`N[C@@H]1c2ccccc2CC12CCN(c1cnc(OCC3CC3)cn1)CC2` [Example 171, (3S)-1′-[5-(cyclopropylmethoxy)pyrazin-2-yl]-1,3-dihydrospiro[indene-2,4′-piperidin]-3-amine] returned an IC50 of at most 50 nM.

As to `N[C@H]1c2ccccc2C[C@]12CC=C(c1cnc3c(N4CCCc5ncccc54)n[nH]c3n1)CC2` [Example 174, (1R,1′R)-4-(3-(3,4-dihydro-1,5-naphthyridin-1(2H)-yl)-1H-pyrazolo[3,4-b]pyrazin-6-yl)-1′,3′-dihydrospiro[cyclohex[3]ene-1,2′-inden]-1′-amine], the IC50 is at most 50 nM.

As for `N[C@@H]1c2ccccc2C[C@]12CC=C(c1cnc3c(N4CCCc5ncccc54)n[nH]c3n1)CC2` [Example 175, (1S,1'S)-4-(3-(3,4-dihydro-1,5-naphthyridin-1(2H)-yl)-1H-pyrazolo[3,4-b]pyrazin-6-yl)-1′,3′-dihydrospiro[cyclohex[3]ene-1,2′-inden]-1′-amine], the IC50 was 1000 to 10000 nM.

Compound `Nc1nccc(Sc2cnc(N3CCC4(CC3)Oc3ccccc3[C@H]4N)cn2)c1Cl` [Example 177] registered a half-maximal inhibitory concentration (IC50) of at most 50 nM.

Take `Cn1c(N2CCC3(CC2)Cc2ccccc2[C@H]3N)nc2[nH]nc(Sc3cccc(Cl)c3Cl)c2c1=O` [Example 178]: the IC50 was over 10000 nM.

As for `N[C@@H]1c2ccccc2CC12CCN(c1cnc3ccccc3n1)CC2` [Example 179], the IC50 is at most 50 nM.

For `N[C@@H]1c2ccccc2CC12CCN(c1nccn3ccnc13)CC2` [Example 180], the IC50 was 1000 to 10000 nM.

On to `Cn1ncc2c(N3CCC4(CC3)Cc3ccccc3[C@H]4N)ncnc21` [Example 181], for which the IC50 fell in the range of 1000 to 10000 nM.

The compound `Cn1cc2c(N3CCC4(CC3)Cc3ccccc3[C@H]4N)ncnc2n1` [Example 182] showed an IC50 of over 10000 nM.

`Cn1cnc2ccnc(N3CCC4(CC3)Cc3ccccc3[C@H]4N)c21` [Example 183] came in with an IC50 of over 10000 nM.

For `Cn1cnc2c(N3CCC4(CC3)Cc3ccccc3[C@H]4N)ncnc21` [Example 184], the 50% inhibitory concentration (IC50) lay in the range of 50 to 1000 nM.
